System: human tumor xenografts
Assay: Growth of human tumor xenografts under OSI-930 (growth curves of xenograft tumor mass)
Assay type: in vivo, mice

In the case of `O=C(Nc1ccc(OC(F)(F)F)cc1)c1sccc1NCc1ccnc2ccccc12` [OSI-930], the “response of xenograft tumor growth to the drug (growth curves of tumor mass)” value (five of the cell line xenograft models, data not shown) was “resistant” and the “response of xenograft tumor growth to the drug (growth curves of tumor mass)” value (the other seven cell line xenograft models) was “significant inhibition of tumor growth”.
